Measurements published in patent US20070004621A1, “Bex4 nucleic acids, polypeptides, and method of using” (priority 2003, published 2007).

What was measured:
[1] = test system: Bex4 expression in Xa cell line; assay: Bex4 expression and site 1 methylation in Xa hybrid cell line after inhibitor treatment; assay type: cell-based; conditions: for Bex4 expression / transcription: Xa (active X) hybrid cell line, various concentrations
Procedure: To determine if methylation of site 1 controlled Bex4 expression in the Xa cell line, cells were treated with various concentrations of the methyltransferase inhibitor 5-aza-2′ deoxycytidine (5-aza-dC). […] Epigenetic inactivation Bex4 in Xa was specific, since two genes flanking Bex4, namely Bex3/NADE and pp21 homolog, were expressed in Xa.

[2] = test system: Bex4 transcription in OV207; assay: Bex4 transcription in OV207 cells after 5-aza-dC treatment; assay type: cell-based, human; conditions: OV207 cell line
Text: Methylation at site 1 in these samples was associated with loss of Bex4 expression, as evidenced by semi-quantitative RT-PCR.

[3] = test system: Bex4 transcription in OV202 cells; assay: Bex4 transcription (RT-PCR) in OV202 cells after 5-aza-2′-deoxycytidine treatment; assay type: cell-based, human; conditions: OV202 cells, 0, 1, 5, or 10 μM, 48 hours, PCR with Bex4 specific primers
Procedure: To determine if hypermethylation is responsible for inactivation of Bex4 expression in OvCa cell lines, OV202 cells were treated with 0, 1, 5, or 10 μM 5-aza-2′-deoxycytidine (a DNA methyltransferase inhibitor) for 48 hours. RNA was extracted, reverse transcribed, and analyzed by PCR using Bex4 specific primers.

CC(/C=C/C(=O)NO)=C\[C@@H](C)C(=O)c1ccc(N(C)C)cc1 [Trichostatin A, trichostatin A]
Bex4 expression / transcription [1]: did not affect

Nc1ncn([C@H]2C[C@H](O)[C@@H](CO)O2)c(=O)n1 [5-aza-2′-deoxycytidine]
Bex4 transcription [2]: induced Bex4 transcription
transcription of Bex4 [3]: dose dependant increase
methylation of site 1 (bisulfite-modified DNA) ([1]; 5-aza-dC treated Xa cells): demethylation of site 1
Bex4 expression / transcription [1]: dose-dependent increase
